Values quoted from earlier work, collected in PMC8260592 (Scientific Reports, 2021).
pIC50: −log10 of the molar value. In brackets after ≈: the same amount, converted by molar mass. Like-named read-outs stand apart in the source and are kept apart here.

Legend:
[1] = system: AChE; conditions: cited from earlier work
[2] = system: MAO-B; conditions: ref 22; cited from earlier work

## COc1cc(C[C@H](C)[C@H](C)Cc2ccc3c(c2)OCO3)ccc1O [macelignan]
[1]; ref 22
  pIC50: 5.38
[2]
  pIC50: 5.13

## COc1cc2oc(-c3ccc(O)cc3)cc(=O)c2c(O)c1[C@@H]1O[C@H](CO)[C@@H](O)[C@H](O)[C@H]1O [swertisin, isovitexin-7-O-methyl ether]
[1]; converted from µg/mL
  pIC50: 4.14
[1]; ref 49
  IC50 AChE: 32.09 µg/mL (≈ 71.9 µM)

## O=C(/C=C/c1ccc(O)cc1)OC[C@H]1O[C@@H](Oc2c(-c3ccc(O)cc3)oc3cc(O)cc(O)c3c2=O)[C@H](O)[C@@H](O)[C@@H]1O [tiliroside]
[1]; ref 50
  pIC50: 4.63

## Oc1ccc([C@H]2c3c(O)cc(O)cc3[C@H]3c4c(cc(O)cc4[C@@H]2c2cc(/C=C/c4cc(O)cc5c4[C@H](c4cc(O)cc(O)c4)[C@@H](c4ccc(O)cc4)O5)ccc2O)O[C@@H]3c2ccc(O)cc2)cc1 [vitisin A]
[1]; ref 56
  pIC50: 5.98

## COc1c(O)cc2oc3cc(O)c(CC=C(C)C)c(O)c3c(=O)c2c1CC=C(C)C [α-mangostin]
[1]; ref 53
  pIC50: 5.61
[1]; ref 54
  pIC50: 5.20

## heyneanol A
[1]; ref 56
  pIC50: 5.78
